Experimental findings from patent publication US10428044B2, “3-amino-1,5,6,7-tetrahydro-4H-indol-4-ones” (Bayer Pharma Aktiengesellschaft, priority 2014, dated 2019) are described below.

Structures are written as SMILES. Bounds are passed on as bounds.

This assay concerns the target (recombinant) catalytic domain of human Bub1 (amino acids 704-1085) (Homo sapiens (Human), UniProt O43683). In words: Bub1 kinase assay (TR-FRET). It counts as biochemical. Conditions: ATP 10 μM final, peptide substrate 1 μM final, 60 min at 22° C., read-out: Biological Assay: Bub1 kinase assay median IC50. An outline of the steps:
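Compounds were serially diluted 1:3.4 from 2 mM DMSO stocks and incubated with the enzyme reaction for 60 min at 22° C. The reaction was stopped with EDTA, and biotinylated peptide phosphorylation was read by TR-FRET using Eu anti-mouse IgG, anti-phosphoserine antibody and streptavidin-XL665. IC50 was fitted by 4-parameter logistic to inhibition normalized to no-inhibitor and no-enzyme controls.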
For orientation: In TR-FRET formats the signal depends on donor and acceptor labels being close together.

The IC50 is the point on the concentration scale where inhibition reaches its midpoint.

(recombinant) catalytic domain of human Bub1 (amino acids 704-1085), sequence (O43683 704-1085): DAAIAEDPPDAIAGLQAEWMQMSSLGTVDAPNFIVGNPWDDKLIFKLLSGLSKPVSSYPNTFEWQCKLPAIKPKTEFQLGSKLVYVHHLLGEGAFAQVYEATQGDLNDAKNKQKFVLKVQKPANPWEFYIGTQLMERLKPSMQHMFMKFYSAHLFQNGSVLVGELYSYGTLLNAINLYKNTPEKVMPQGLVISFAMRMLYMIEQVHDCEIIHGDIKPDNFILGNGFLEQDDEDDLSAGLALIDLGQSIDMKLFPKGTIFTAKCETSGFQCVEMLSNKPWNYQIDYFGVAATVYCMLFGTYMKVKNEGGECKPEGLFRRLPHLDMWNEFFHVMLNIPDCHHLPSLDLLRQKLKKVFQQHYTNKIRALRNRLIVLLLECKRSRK

For the molecule `O=C1CCC(O)c2[nH]c(-c3ccncc3)c(Nc3ccccc3)c21` (centres unmarked) [Example 446, 7-hydroxy-3-(phenylamino)-2-(pyridin-4-yl)-1,5,6,7-tetrahydro-4H-indol-4-one], the IC50 was 40.1 nM.

As for `Cn1cc(C(=O)Nc2cc(-c3[nH]c4c(c3Nc3ccccc3)C(=O)CCC4)ccn2)cn1` [Example 447, 1-methyl-N-{4-[4-oxo-3-(phenylamino)-4,5,6,7-tetrahydro-1H-indol-2-yl]pyridin-2-yl}-1H-pyrazole-4-carboxamide], the IC50 turned out to be 11.2 nM. On to `CC(C)(C)n1cc(C(=O)Nc2cc(-c3[nH]c4c(c3Nc3ccccc3)C(=O)CCC4)ccn2)cn1` [Example 448, 1-tert-butyl-N-{4-[4-oxo-3-(phenylamino)-4,5,6,7-tetrahydro-1H-indol-2-yl]pyridin-2-yl}-1H-pyrazole-4-carboxamide], for which the IC50 was found to be 8.93 nM. Take `O=C(Nc1cc(-c2[nH]c3c(c2Nc2ccccc2)C(=O)CCC3)ccn1)c1cnn(Cc2ccccc2)c1` [Example 449, 1-benzyl-N-{4-[4-oxo-3-(phenylamino)-4,5,6,7-tetrahydro-1H-indol-2-yl]pyridin-2-yl}-1H-pyrazole-4-carboxamide]: the IC50 worked out at 4.38 nM. In the case of `COc1ccc(Cn2cc(C(=O)Nc3cc(-c4[nH]c5c(c4Nc4ccccc4)C(=O)CCC5)ccn3)cn2)cc1` [Example 450, 1-(4-methoxybenzyl)-N-{4-[4-oxo-3-(phenylamino)-4,5,6,7-tetrahydro-1H-indol-2-yl]pyridin-2-yl}-1H-pyrazole-4-carboxamide] it was 6.24 nM; in that of `O=C(Nc1cc(-c2[nH]c3c(c2Nc2ccccc2)C(=O)CCC3)ccn1)c1ccc(F)c(F)c1` [Example 451, 3,4-difluoro-N-{4-[4-oxo-3-(phenylamino)-4,5,6,7-tetrahydro-1H-indol-2-yl]pyridin-2-yl}benzamide], 8.82 nM; in that of `O=C(Nc1cc(-c2[nH]c3c(c2Nc2ccccc2)C(=O)CCC3)ccn1)c1cc(F)cc(F)c1` [Example 452, 3,5-difluoro-N-{4-[4-oxo-3-(phenylamino)-4,5,6,7-tetrahydro-1H-indol-2-yl]pyridin-2-yl}benzamide], 19.2 nM. Turning to `COc1cc(C(=O)Nc2cc(-c3[nH]c4c(c3Nc3ccccc3)C(=O)CCC4)ccn2)ccc1F` [Example 453, 4-fluoro-3-methoxy-N-{4-[4-oxo-3-(phenylamino)-4,5,6,7-tetrahydro-1H-indol-2-yl]pyridin-2-yl}benzamide], the IC50 worked out at 10 nM. For the molecule `Cn1ccc(C(=O)Nc2cc(-c3[nH]c4c(c3Nc3ccccc3)C(=O)CCC4)ccn2)n1` [Example 454, 1-methyl-N-{4-[4-oxo-3-(phenylamino)-4,5,6,7-tetrahydro-1H-indol-2-yl]pyridin-2-yl}-1H-pyrazole-3-carboxamide], the IC50 is 7.33 nM. For `O=C1CCCc2[nH]c(-c3ccncc3OCC3CC3)c(Nc3ccccc3)c21` [Example 455, 2-[3-(cyclopropylmethoxy)pyridin-4-yl]-3-(phenylamino)-1,5,6,7-tetrahydro-4H-indol-4-one], the IC50 worked out at 24.4 nM. On to `CCCOc1cnccc1-c1[nH]c2c(c1Nc1ccccc1)C(=O)CCC2` [Example 456, 3-(phenylamino)-2-(3-propoxypyridin-4-yl)-1,5,6,7-tetrahydro-4H-indol-4-one], for which the IC50 amounted to 73.3 nM.

Turning to `O=C1CCCc2[nH]c(-c3ccncc3OCC(F)F)c(Nc3ccccc3)c21` [Example 457, 2-[3-(2,2-difluoroethoxy)pyridin-4-yl]-3-(phenylamino)-1,5,6,7-tetrahydro-4H-indol-4-one], the IC50 amounted to 53.5 nM. In the case of `O=C1CCCc2[nH]c(-c3ccncc3OCC(F)(F)F)c(Nc3ccccc3)c21` [Example 458, 3-(phenylamino)-2-[3-(2,2,2-trifluoroethoxy)pyridin-4-yl]-1,5,6,7-tetrahydro-4H-indol-4-one] it was 78.7 nM; in that of `O=C1CCCc2[nH]c(-c3ccncc3OCCO)c(Nc3ccccc3)c21` [Example 459, 2-[3-(2-hydroxyethoxy)pyridin-4-yl]-3-(phenylamino)-1,5,6,7-tetrahydro-4H-indol-4-one], 58.8 nM; in that of `CC1(C)OC[C@@H](C(=O)Nc2cc(-c3[nH]c4c(c3Nc3ccccc3)C(=O)CCC4)ccn2)O1` [Example 460, (4S)-2,2-dimethyl-N-{4-[4-oxo-3-(phenylamino)-4,5,6,7-tetrahydro-1H-indol-2-yl]pyridin-2-yl}-1,3-dioxolane-4-carboxamide], 19.7 nM. The same measure for `CC(=O)Nc1cc(-c2[nH]c3c(c2Nc2ccccc2)C(=O)CC(CF)C3)ccn1` (centres unmarked) [Example 461, N-{4-[6-(fluoromethyl)-4-oxo-3-(phenylamino)-4,5,6,7-tetrahydro-1H-indol-2-yl]pyridin-2-yl}acetamide]: 6.88 nM. For the molecule `O=C(COc1ccc(F)cc1)Nc1cc(-c2[nH]c3c(c2Nc2ccccc2)C(=O)CCC3)ccn1` [Example 462, N-[4-(3-anilino-4-oxo-4,5,6,7-tetrahydro-1H-indol-2-yl)pyridin-2-yl]-2-(4-fluorophenoxy)acetamide], the IC50 was found to be 18.2 nM.

In the case of `Cn1ccnc1CC(=O)Nc1cc(-c2[nH]c3c(c2Nc2ccccc2)C(=O)CCC3)ccn1` [Example 463, N-[4-(3-anilino-4-oxo-4,5,6,7-tetrahydro-1H-indol-2-yl)pyridin-2-yl]-2-(1-methyl-1H-imidazol-2-yl)acetamide], the IC50 was 142 nM. Regarding `CC1(C)CC(=O)c2c([nH]c(-c3ccncc3O)c2Nc2ccccc2)C1` [Example 464, 3-anilino-2-(3-hydroxypyridin-4-yl)-6,6-dimethyl-1,5,6,7-tetrahydro-4H-indol-4-one], the IC50 is 58.9 nM.

On to `CC1(C)CC(=O)c2c([nH]c(-c3ccnc(NC(=O)c4ccn[nH]4)c3)c2Nc2ccccc2)C1` [Example 465, N-{4-[6,6-dimethyl-4-oxo-3-(phenylamino)-4,5,6,7-tetrahydro-1H-indol-2-yl]pyridin-2-yl}-1H-pyrazole-3-carboxamide], for which the IC50 was determined as 7.19 nM. As for `CC1(C)CC(=O)c2c([nH]c(-c3ccnc(NC(=O)c4cc(F)cc(F)c4)c3)c2Nc2ccccc2)C1` [Example 467, N-{4-[6,6-dimethyl-4-oxo-3-(phenylamino)-4,5,6,7-tetrahydro-1H-indol-2-yl]pyridin-2-yl}-3,5-difluorobenzamide], the IC50 worked out at 23.3 nM.

Turning to `CC1(C)CC(=O)c2c([nH]c(-c3ccnc(OCc4ccccc4)c3)c2Nc2ccccc2)C1` [Example 468, 2-[2-(benzyloxy)pyridin-4-yl]-6,6-dimethyl-3-(phenylamino)-1,5,6,7-tetrahydro-4H-indol-4-one], the IC50 was above 20000 nM.

For `CC1(C)CC(=O)c2c([nH]c(-c3ccnc(O)c3)c2Nc2ccccc2)C1` [Example 469, 2-(2-hydroxypyridin-4-yl)-6,6-dimethyl-3-(phenylamino)-1,5,6,7-tetrahydro-4H-indol-4-one], the IC50 came to 2160 nM. For the molecule `O=C(Nc1cc(-c2[nH]c3c(c2Nc2ccccc2)C(=O)CC2(CC2)C3)ccn1)c1cocn1` [Example 470, N-{4-[4′-oxo-3′-(phenylamino)-1′,4′,5′,7′-tetrahydrospiro[cyclopropane-1,6′-indol]-2′-yl]pyridin-2-yl}-1,3-oxazole-4-carboxamide], the IC50 is 4.49 nM. As to `CO/N=C1\CC(C)(C)Cc2[nH]c(-c3ccncc3)c(Nc3ccccc3)c21` [Example 471, 4-(methoxyimino)-6,6-dimethyl-N-phenyl-2-(pyridin-4-yl)-4,5,6,7-tetrahydro-1H-indol-3-amine], the IC50 worked out at 4430 nM. Regarding `CC1(C)CC(=O)c2c([nH]c(-c3ccnc(NC(=O)c4cnn(C(C)(C)C)c4)c3)c2Nc2ccccc2)C1` [Example 472, 1-tert-butyl-N-{4-[6,6-dimethyl-4-oxo-3-(phenylamino)-4,5,6,7-tetrahydro-1H-indol-2-yl]pyridin-2-yl}-1H-pyrazole-4-carboxamide], the IC50 worked out at 5.04 nM.

Turning to `CC1(C)CC(=O)c2c([nH]c(-c3ccnc(NC(=O)c4ccc(F)c(F)c4)c3)c2Nc2ccccc2)C1` [Example 473, N-{4-[6,6-dimethyl-4-oxo-3-(phenylamino)-4,5,6,7-tetrahydro-1H-indol-2-yl]pyridin-2-yl}-3,4-difluorobenzamide], the IC50 worked out at 10.3 nM.

Turning to `COc1cc(C(=O)Nc2cc(-c3[nH]c4c(c3Nc3ccccc3)C(=O)CC(C)(C)C4)ccn2)ccc1F` [Example 474, N-{4-[6,6-dimethyl-4-oxo-3-(phenylamino)-4,5,6,7-tetrahydro-1H-indol-2-yl]pyridin-2-yl}-4-fluoro-3-methoxybenzamide], the IC50 was 8.63 nM.

Take `CC1(C)CC(=O)c2c([nH]c(-c3ccnc(NC(=O)C(C)(C)F)c3)c2Nc2ccccc2)C1` [Example 475, N-{4-[6,6-dimethyl-4-oxo-3-(phenylamino)-4,5,6,7-tetrahydro-1H-indol-2-yl]pyridin-2-yl}-2-fluoro-2-methylpropanamide]: the IC50 worked out at 38.7 nM. In the case of `CC1(C)CC(=O)c2c([nH]c(-c3ccnc(NC(=O)COCc4ccccc4)c3)c2Nc2ccccc2)C1` [Example 476, 2-(benzyloxy)-N-{4-[6,6-dimethyl-4-oxo-3-(phenylamino)-4,5,6,7-tetrahydro-1H-indol-2-yl]pyridin-2-yl}acetamide], the IC50 was determined as 8.04 nM.

For `CC1(C)CC(=O)c2c([nH]c(-c3ccnc(NC(=O)C4CC4(F)F)c3)c2Nc2ccccc2)C1` (centres unmarked) [Example 477, N-{4-[6,6-dimethyl-4-oxo-3-(phenylamino)-4,5,6,7-tetrahydro-1H-indol-2-yl]pyridin-2-yl}-2,2-difluorocyclopropanecarboxamide], the IC50 was 6.62 nM.

For the molecule `CC1(C)CC(=O)c2c([nH]c(-c3ccnc(NC(=O)c4cnn(Cc5ccccc5)c4)c3)c2Nc2ccccc2)C1` [Example 478, 1-benzyl-N-{4-[6,6-dimethyl-4-oxo-3-(phenylamino)-4,5,6,7-tetrahydro-1H-indol-2-yl]pyridin-2-yl}-1H-pyrazole-4-carboxamide], the IC50 is 4.23 nM.
